Measured values as given in patent publication US9266876B2 (Actelion Pharmaceuticals Ltd., priority 2012, dated 2016).
Read-outs that look alike come from different tables or passages of the source.

What was measured:
[1] = target: human CXCR3A (Homo sapiens (Human), UniProt P49682); experiment: FLIPR assay; assay type: cell-based; conditions: CHO-K1 cells expressing the human CXCR3A coupled to Galpha(16); CXCL10 agonist 20 nM; Fluo-4-AM fluorescence; mean values if determined several times
Procedure, shortened: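 CHO-K1 cells expressing CXCR3A coupled to Gα16 were loaded with Fluo-4-AM for 1 h in Hepes-buffered HBSS, pH 7.4, with 5 mM probenecid. Compound dilutions were added on the FLIPR, followed by CXCL10 (added as a 20 nM solution). Baseline-subtracted peak fluorescence was fitted to a single-site curve for IC50.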

[2] = target: CXCR3 (Homo sapiens (Human), UniProt P49682); experiment: Receptor internalization assay; assay type: cell-based
Procedure, shortened: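 In human whole blood, compounds were incubated with CXCL10 (9 nM final) for 30 min at 37 °C to drive receptor internalization, then stained with anti-CXCR3/CD3 antibodies and lysed of red cells. Flow cytometry measured mean surface CXCR3 fluorescence on CD3+ cells, and IC50 came from single-site dose-response fits.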

[3] = human whole blood, final CXCL10 concentration 9 nM, 30 min 37° C., CXCR3 cell surface expression on CD3 positive cells, flow cytometer, read-out: Internalization IC50

Sequence of CXCR3 (P49682 whole entry): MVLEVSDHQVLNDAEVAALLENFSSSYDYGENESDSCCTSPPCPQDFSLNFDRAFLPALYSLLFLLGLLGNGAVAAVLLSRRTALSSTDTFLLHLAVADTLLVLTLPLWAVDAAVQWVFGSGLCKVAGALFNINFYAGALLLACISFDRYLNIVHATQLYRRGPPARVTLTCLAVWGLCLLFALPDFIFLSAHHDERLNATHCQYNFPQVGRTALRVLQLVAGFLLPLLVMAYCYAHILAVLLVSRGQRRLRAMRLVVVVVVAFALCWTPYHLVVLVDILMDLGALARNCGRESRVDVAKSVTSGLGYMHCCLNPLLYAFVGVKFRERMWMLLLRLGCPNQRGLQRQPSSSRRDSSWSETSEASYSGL
Sequence of human CXCR3A (P49682 whole entry): as above

`C[C@@H]1CN(c2scnc2-c2nc3ccccc3[nH]2)CCN1C(=O)Cc1cccc2ccccc12` [Example 118, 1-{(R)-4-[4-(1H-Benzoimidazol-2-yl)-thiazol-5-yl]-2-methyl-piperazin-1-yl}-2-naphthalen-1-yl-ethanone] showed an IC50 [1] of 3 nM and an IC50 [2, 3] of 3780 nM.
In the case of `C[C@@H]1CN(c2scnc2-c2nc3ccccc3[nH]2)CCN1C(=O)Cc1cccc2cccnc12` [Example 119, 1-{(R)-4-[4-(1H-Benzoimidazol-2-yl)-thiazol-5-yl]-2-methyl-piperazin-1-yl}-2-quinolin-8-yl-ethanone], the IC50 [1] is reported as 2 nM and the IC50 [2, 3] is reported as 2450 nM.
`C[C@@H]1CN(c2scnc2-c2nc3ccccc3[nH]2)CCN1C(=O)Cc1noc2ccccc12` [Example 130, 2-Benzo[d]isoxazol-3-yl-1-{(R)-4-[4-(1H-benzoimidazol-2-yl)-thiazol-5-yl]-2-methyl-piperazin-1-yl}-ethanone] gave an IC50 [1] of 3 nM and an IC50 [2, 3] of 2670 nM.
`C[C@@H]1CN(c2scnc2-c2nc3ccccc3[nH]2)CCN1C(=O)Cc1n[nH]c2ccccc12` [Example 132, 1-{(R)-4-[4-(1H-Benzoimidazol-2-yl)-thiazol-5-yl]-2-methyl-piperazin-1-yl}-2-(1H-indazol-3-yl)-ethanone] was tested, and the IC50 [1] was 3 nM and the IC50 [2, 3] was 6380 nM.
`C[C@@H]1CN(c2scnc2-c2nc3ccccc3[nH]2)CCN1C(=O)Cn1cnc2ccncc21` [Example 137, 1-{(R)-4-[4-(1H-Benzoimidazol-2-yl)-thiazol-5-yl]-2-methyl-piperazin-1-yl}-2-imidazo[4,5-c]pyridin-3-yl-ethanone] was tested, and the IC50 [1] was 5 nM and the IC50 [2, 3] was 1140 nM.
For `C[C@@H]1CN(c2scnc2-c2nc3ccccc3[nH]2)CCN1C(=O)Cn1cnc2cnccc21` [Example 138, 1-{(R)-4-[4-(1H-Benzoimidazol-2-yl)-thiazol-5-yl]-2-methyl-piperazin-1-yl}-2-imidazo[4,5-c]pyridin-1-yl-ethanone], the IC50 [1] was 4 nM and the IC50 [2, 3] was 1090 nM.
`C[C@@H]1CN(c2scnc2-c2nc3ccccc3[nH]2)CCN1C(=O)CN1CCc2cccnc21` [Example 139, 1-{(R)-4-[4-(1H-Benzoimidazol-2-yl)-thiazol-5-yl]-2-methyl-piperazin-1-yl}-2-(2,3-dihydro-pyrrolo[2,3-b]pyridin-1-yl)-ethanone] gave an IC50 [1] of 2 nM and an IC50 [2, 3] of 2930 nM.
With `C[C@@H]1CN(c2scnc2-c2nc3ccccc3[nH]2)CCN1C(=O)Cn1ccc2ccncc21` [Example 141, 1-{(R)-4-[4-(1H-Benzoimidazol-2-yl)-thiazol-5-yl]-2-methyl-piperazin-1-yl}-2-pyrrolo[2,3-c]pyridin-1-yl-ethanone] the IC50 [1] was 0.2 nM and the IC50 [2, 3] was 363 nM.
`C[C@@H]1CN(c2scnc2-c2nc3ccccc3[nH]2)CCN1C(=O)Cn1ccc2ccnc(Cl)c21` [Example 142, 1-{(R)-4-[4-(1H-Benzoimidazol-2-yl)-thiazol-5-yl]-2-methyl-piperazin-1-yl}-2-(7-chloro-pyrrolo[2,3-c]pyridin-1-yl)-ethanone] was tested, and the IC50 [1] was 2 nM and the IC50 [2, 3] was 352 nM.
`C[C@@H]1CN(c2scnc2-c2nc3ccccc3[nH]2)CCN1C(=O)Cn1cc(Cl)c2cccnc21` [Example 143, 1-{(R)-4-[4-(1H-Benzoimidazol-2-yl)-thiazol-5-yl]-2-methyl-piperazin-1-yl}-2-(3-chloro-pyrrolo[2,3-b]pyridin-1-yl)-ethanone] showed an IC50 [1] of 1 nM and an IC50 [2, 3] of 723 nM.
In the case of `Cc1nc(-c2nc3ccccc3[nH]2)c(N2CCN(C(=O)Cn3cnc4cccnc43)[C@H](C)C2)s1` [Example 144, 1-{(R)-4-[4-(1H-Benzoimidazol-2-yl)-2-methyl-thiazol-5-yl]-2-methyl-piperazin-1-yl}-2-imidazo[4,5-b]pyridin-3-yl-ethanone], the IC50 [1] is reported as 2 nM and the IC50 [2, 3] is reported as 933 nM.
Work on `C[C@@H]1CN(c2sc(C(F)(F)F)nc2-c2nc3cc(Cl)ccc3[nH]2)CCN1C(=O)Cn1cnc2cccnc21` [Example 147, 1-{(R)-4-[4-(5-Chloro-1H-benzoimidazol-2-yl)-2-trifluoromethyl-thiazol-5-yl]-2-methyl-piperazin-1-yl}-2-imidazo[4,5-b]pyridin-3-yl-ethanone] yielded an IC50 [1] of 1 nM and an IC50 [2] of 39 nM.
`C[C@@H]1CN(c2sc(-c3ccccc3F)nc2-c2nc3ccccc3[nH]2)CCN1C(=O)Cn1cnc2cccnc21` [Example 148, 1-{(R)-4-[4-(1H-Benzoimidazol-2-yl)-2-(2-fluoro-phenyl)-thiazol-5-yl]-2-methyl-piperazin-1-yl}-2-imidazo[4,5-b]pyridin-3-yl-ethanone] showed an IC50 [1] of 24 nM and an IC50 [2, 3] of 4490 nM.
In the case of `Cc1cccc(-c2nc(-c3nc4ccccc4[nH]3)c(N3CCN(C(=O)Cn4cnc5cccnc54)[C@H](C)C3)s2)c1` [Example 149, 1-{(R)-4-[4-(1H-Benzoimidazol-2-yl)-2-m-tolyl-thiazol-5-yl]-2-methyl-piperazin-1-yl}-2-imidazo[4,5-b]pyridin-3-yl-ethanone], the IC50 [1] is reported as 16 nM and the IC50 [2, 3] is reported as 5070 nM.
In the case of `Cc1ccc(-c2nc(-c3nc4ccccc4[nH]3)c(N3CCN(C(=O)Cn4cnc5cccnc54)[C@H](C)C3)s2)cc1` [Example 150, 1-{(R)-4-[4-(1H-Benzoimidazol-2-yl)-2-p-tolyl-thiazol-5-yl]-2-methyl-piperazin-1-yl}-2-imidazo[4,5-b]pyridin-3-yl-ethanone], the IC50 [1] is reported as 45 nM and the IC50 [2, 3] is reported as 5680 nM.
In the case of `C[C@@H]1CN(c2scnc2-c2nc3ccccc3[nH]2)CCN1C(=O)CN1C(=O)C(C)(C)c2ccccc21` [Example 151, 1-(2-{(R)-4-[4-(1H-Benzoimidazol-2-yl)-thiazol-5-yl]-2-methyl-piperazin-1-yl}-2-oxo-ethyl)-3,3-dimethyl-1,3-dihydro-indol-2-one], the IC50 [1] is reported as 4 nM and the IC50 [2, 3] is reported as 547 nM.
`Cc1cccc2oc(=O)n(CC(=O)N3CCN(c4scnc4-c4nc5ccccc5[nH]4)C[C@H]3C)c12` [Example 152, 3-(2-{(R)-4-[4-(1H-Benzoimidazol-2-yl)-thiazol-5-yl]-2-methyl-piperazin-1-yl}-2-oxo-ethyl)-4-methyl-3H-benzooxazol-2-one] gave an IC50 [1] of 3 nM and an IC50 [2, 3] of 663 nM.
`C[C@@H]1CN(c2scnc2-c2nc3ccccc3[nH]2)CCN1C(=O)Cn1c(=O)oc2cccc(F)c21` [Example 153, 3-(2-{(R)-4-[4-(1H-Benzoimidazol-2-yl)-thiazol-5-yl]-2-methyl-piperazin-1-yl}-2-oxo-ethyl)-4-fluoro-3H-benzooxazol-2-one] was tested, and the IC50 [1] was 7 nM and the IC50 [2, 3] was 1030 nM.
In the case of `C[C@@H]1CN(c2scnc2-c2nc3ccccc3[nH]2)CCN1C(=O)Cn1c(CO)cc2cccnc21` [Example 154, 1-{(R)-4-[4-(1H-Benzoimidazol-2-yl)-thiazol-5-yl]-2-methyl-piperazin-1-yl}-2-(2-hydroxymethyl-pyrrolo[2,3-b]pyridin-1-yl)-ethanone], the IC50 [1] is reported as 14 nM and the IC50 [2, 3] is reported as 3040 nM.
In the case of `C[C@@H]1CN(c2scnc2-c2nc3ccccc3[nH]2)CCN1C(=O)Cn1c(=O)oc2cccnc21` [Example 155, 3-(2-{(R)-4-[4-(1H-Benzoimidazol-2-yl)-thiazol-5-yl]-2-methyl-piperazin-1-yl}-2-oxo-ethyl)-3H-oxazolo[4,5-b]pyridin-2-one], the IC50 [1] is reported as 6 nM and the IC50 [2, 3] is reported as 1100 nM.
`COc1cc2nc(-c3ncsc3N3CCN(C(=O)Cn4cnc5cccnc54)[C@H](C)C3)[nH]c2cc1OC` [Example 158, 1-{(R)-4-[4-(5,6-Dimethoxy-1H-benzoimidazol-2-yl)-thiazol-5-yl]-2-methyl-piperazin-1-yl}-2-imidazo[4,5-b]pyridin-3-yl-ethanone] was tested, and the IC50 [1] was 5 nM and the IC50 [2, 3] was 3430 nM.
Molecule `C[C@@H]1CN(c2scnc2-c2nc3ccc(CO)cc3[nH]2)CCN1C(=O)Cn1cnc2cccnc21` [Example 159, 1-{(R)-4-[4-(6-Hydroxymethyl-1H-benzoimidazol-2-yl)-thiazol-5-yl]-2-methyl-piperazin-1-yl}-2-imidazo[4,5-b]pyridin-3-yl-ethanone] has an IC50 [1] of 1 nM and an IC50 [2, 3] of 1540 nM.
In the case of `C[C@@H]1CN(c2sc(C(F)(F)F)nc2-c2nc3ccc(CO)cc3[nH]2)CCN1C(=O)Cn1cnc2cccnc21` [Example 160, 1-{(R)-4-[4-(6-Hydroxymethyl-1H-benzoimidazol-2-yl)-2-trifluoromethyl-thiazol-5-yl]-2-methyl-piperazin-1-yl}-2-imidazo[4,5-b]pyridin-3-yl-ethanone], the IC50 [1] is reported as 2 nM and the IC50 [2, 3] is reported as 92 nM.
`COc1cc2nc(-c3nc(C(F)(F)F)sc3N3CCN(C(=O)Cn4cnc5cccnc54)[C@H](C)C3)[nH]c2cc1OC` [Example 161, 1-{(R)-4-[4-(5,6-Dimethoxy-1H-benzoimidazol-2-yl)-2-trifluoromethyl-thiazol-5-yl]-2-methyl-piperazin-1-yl}-2-imidazo[4,5-b]pyridin-3-yl-ethanone] was tested, and the IC50 [1] was 2 nM and the IC50 [2, 3] was 146 nM.
Work on `C[C@@H]1CN(c2scnc2-c2nc3ccc(C4CC4)cc3[nH]2)CCN1C(=O)Cn1cnc2cccnc21` [Example 162, 1-{(R)-4-[4-(6-Cyclopropyl-1H-benzoimidazol-2-yl)-thiazol-5-yl]-2-methyl-piperazin-1-yl}-2-imidazo[4,5-b]pyridin-3-yl-ethanone] yielded an IC50 [1] of 1 nM and an IC50 [2, 3] of 181 nM.
Work on `COCCOc1ccc2[nH]c(-c3nc(C(F)(F)F)sc3N3CCN(C(=O)Cn4cnc5cccnc54)[C@H](C)C3)nc2c1` [Example 163, 2-Imidazo[4,5-b]pyridin-3-yl-1-((R)-4-{4-[5-(2-methoxy-ethoxy)-1H-benzoimidazol-2-yl]-2-trifluoromethyl-thiazol-5-yl}-2-methyl-piperazin-1-yl)-ethanone] yielded an IC50 [1] of 5 nM and an IC50 [2, 3] of 47 nM.
